From PubChem BioAssay (NCI)
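Where inhibition never reached the appropriate level, the endpoint shown equals the highest concentration tested. Otherwise, values were interpolated linearly from a five-concentration, 48-hour dose response in 96-well plates. Here, GI50 denotes the concentration required for 50% inhibition of growth. TGI: total growth inhibition.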

Tests used:
Assay in all cases: growth of human tumour cells (NCI), 48 h
786-0 renal = tested on: 786-0 renal
A498 renal = tested on: A498 renal
A549 NSCLC = tested on: A549 NSCLC
ACHN renal = tested on: ACHN renal
BT-549 breast = tested on: BT-549 breast
CAKI-1 renal = tested on: CAKI-1 renal
CCRF-CEM leukemia = tested on: CCRF-CEM leukemia
COLO 205 colon = tested on: COLO 205 colon
DU-145 prostate = tested on: DU-145 prostate
EKVX NSCLC = tested on: EKVX NSCLC
HCC-2998 colon = tested on: HCC-2998 colon
HCT-116 colon = tested on: HCT-116 colon
HCT-15 colon = tested on: HCT-15 colon
HL-60(TB) leukemia = tested on: HL-60(TB) leukemia
HOP-62 NSCLC = tested on: HOP-62 NSCLC
HOP-92 NSCLC = tested on: HOP-92 NSCLC
HS 578T breast = tested on: HS 578T breast
HT29 colon = tested on: HT29 colon
IGROV1 ovarian = tested on: IGROV1 ovarian
K-562 leukemia = tested on: K-562 leukemia
KM12 colon = tested on: KM12 colon
LOX IMVI melanoma = tested on: LOX IMVI melanoma
M14 melanoma = tested on: M14 melanoma
MALME-3M melanoma = tested on: MALME-3M melanoma
MCF7 breast = tested on: MCF7 breast
MDA-MB-231 breast = tested on: MDA-MB-231 breast
MDA-MB-435 = tested on: MDA-MB-435
MDA-MB-468 breast = tested on: MDA-MB-468 breast
MOLT-4 leukemia = tested on: MOLT-4 leukemia
NCI-H226 lung = tested on: NCI-H226 lung
NCI-H23 lung = tested on: NCI-H23 lung
NCI-H460 lung = tested on: NCI-H460 lung
NCI-H522 lung = tested on: NCI-H522 lung
NCI/ADR-RES ovarian = tested on: NCI/ADR-RES ovarian
OVCAR-3 ovarian = tested on: OVCAR-3 ovarian
OVCAR-4 ovarian = tested on: OVCAR-4 ovarian
OVCAR-5 ovarian = tested on: OVCAR-5 ovarian
OVCAR-8 ovarian = tested on: OVCAR-8 ovarian
PC-3 prostate = tested on: PC-3 prostate
RPMI-8226 leukemia = tested on: RPMI-8226 leukemia
RXF 393 renal = tested on: RXF 393 renal
SF-268 CNS = tested on: SF-268 CNS
SF-295 CNS = tested on: SF-295 CNS
SF-539 CNS = tested on: SF-539 CNS
SK-MEL-2 melanoma = tested on: SK-MEL-2 melanoma
SK-MEL-28 melanoma = tested on: SK-MEL-28 melanoma
SK-MEL-5 melanoma = tested on: SK-MEL-5 melanoma
SK-OV-3 ovarian = tested on: SK-OV-3 ovarian
SN12C renal = tested on: SN12C renal
SNB-19 CNS = tested on: SNB-19 CNS
SNB-75 CNS = tested on: SNB-75 CNS
SR leukemia = tested on: SR leukemia
SW-620 colon = tested on: SW-620 colon
T-47D breast = tested on: T-47D breast
TK-10 renal = tested on: TK-10 renal
U251 CNS = tested on: U251 CNS
UACC-257 melanoma = tested on: UACC-257 melanoma
UACC-62 melanoma = tested on: UACC-62 melanoma
UO-31 renal = tested on: UO-31 renal

`CC1(C)CC[C@]2(C(=O)Nc3ccccc3)CC[C@]3(C)C(=CC[C@@H]4[C@@]5(C)CC[C@H](N)C(C)(C)[C@@H]5CC[C@]43C)[C@H]2C1` was tested, and the GI50 (786-0 renal) was 13.8 µM, the TGI (786-0 renal) was 29 µM and the GI50 (A498 renal) was 13.2 µM. For the same molecule, the TGI (A498 renal) was 27.1 µM, the GI50 (A549 NSCLC) was 17.4 µM and the TGI (A549 NSCLC) was 41.6 µM. For the same molecule, the GI50 (ACHN renal) was 15.9 µM, the TGI (ACHN renal) was 29.5 µM and the GI50 (BT-549 breast) was 18.3 µM. For the same molecule, the TGI (BT-549 breast) was 32.9 µM, the GI50 (CAKI-1 renal) was 14.6 µM and the TGI (CAKI-1 renal) was 28.5 µM. The GI50 (CCRF-CEM leukemia) was 14.6 µM, the TGI (CCRF-CEM leukemia) was 34.5 µM and the GI50 (COLO 205 colon) was 15.6 µM. The TGI (COLO 205 colon) was 35.7 µM, the GI50 (DU-145 prostate) was 16.1 µM and the TGI (DU-145 prostate) was 30.6 µM. It also gave a GI50 (EKVX NSCLC) of 15.6 µM, a TGI (EKVX NSCLC) of 30.4 µM and a GI50 (HCC-2998 colon) of 12 µM. It also gave a TGI (HCC-2998 colon) of 25.1 µM, a GI50 (HCT-116 colon) of 9.26 µM and a TGI (HCT-116 colon) of 26.2 µM. The GI50 (HCT-15 colon) was 13.6 µM, the TGI (HCT-15 colon) was 27.9 µM and the GI50 (HL-60(TB) leukemia) was 10 µM. For the same molecule, the TGI (HL-60(TB) leukemia) was 37.5 µM, the GI50 (HOP-62 NSCLC) was 15.8 µM and the TGI (HOP-62 NSCLC) was 32.4 µM. For the same molecule, the GI50 (HOP-92 NSCLC) was 11.5 µM, the TGI (HOP-92 NSCLC) was 26.1 µM and the GI50 (HS 578T breast) was 16.2 µM. For the same molecule, the TGI (HS 578T breast) was 35.2 µM, the GI50 (HT29 colon) was 17.5 µM and the TGI (HT29 colon) was 39.9 µM. For the same molecule, the GI50 (IGROV1 ovarian) was 15.8 µM, the TGI (IGROV1 ovarian) was 30.2 µM and the GI50 (K-562 leukemia) was 4.07 µM. It also gave a TGI (K-562 leukemia) greater than 100 µM, a GI50 (KM12 colon) of 17.3 µM and a TGI (KM12 colon) of 32.4 µM. For the same molecule, the GI50 (LOX IMVI melanoma) was 4.31 µM, the TGI (LOX IMVI melanoma) was 16.2 µM and the GI50 (M14 melanoma) was 17.6 µM. It also gave a TGI (M14 melanoma) of 33.8 µM, a GI50 (MALME-3M melanoma) of 16.4 µM and a TGI (MALME-3M melanoma) of 30.3 µM. For the same molecule, the GI50 (MCF7 breast) was 3.51 µM, the TGI (MCF7 breast) was 14.7 µM and the GI50 (MDA-MB-231 breast) was 16.1 µM. For the same molecule, the TGI (MDA-MB-231 breast) was 30 µM, the GI50 (MDA-MB-435) was 14.8 µM and the TGI (MDA-MB-435) was 29 µM. It also gave a GI50 (MDA-MB-468 breast) of 13.3 µM, a TGI (MDA-MB-468 breast) of 28.1 µM and a GI50 (MOLT-4 leukemia) of 15.3 µM. It also gave a TGI (MOLT-4 leukemia) of 42 µM, a GI50 (NCI-H226 lung) of 14.9 µM and a TGI (NCI-H226 lung) of 31.8 µM. For the same molecule, the GI50 (NCI-H23 lung) was 16.8 µM, the TGI (NCI-H23 lung) was 31.5 µM and the GI50 (NCI-H460 lung) was 13.4 µM. It also gave a TGI (NCI-H460 lung) of 28 µM, a GI50 (NCI-H522 lung) of 16.2 µM and a TGI (NCI-H522 lung) of 32.4 µM. It also gave a GI50 (NCI/ADR-RES ovarian) of 16.2 µM, a TGI (NCI/ADR-RES ovarian) of 31.9 µM and a GI50 (OVCAR-3 ovarian) of 13.2 µM. The TGI (OVCAR-3 ovarian) was 26.6 µM, the GI50 (OVCAR-4 ovarian) was 15.8 µM and the TGI (OVCAR-4 ovarian) was 31.4 µM. The GI50 (OVCAR-5 ovarian) was 16.2 µM, the TGI (OVCAR-5 ovarian) was 30 µM and the GI50 (OVCAR-8 ovarian) was 18.2 µM. For the same molecule, the TGI (OVCAR-8 ovarian) was 38.3 µM, the GI50 (PC-3 prostate) was 15.9 µM and the TGI (PC-3 prostate) was 31.8 µM. It also gave a GI50 (RPMI-8226 leukemia) of 19 µM, a TGI (RPMI-8226 leukemia) of 80 µM and a GI50 (RXF 393 renal) of 10.2 µM. For the same molecule, the TGI (RXF 393 renal) was 24 µM, the GI50 (SF-268 CNS) was 16.6 µM and the TGI (SF-268 CNS) was 33.5 µM. For the same molecule, the GI50 (SF-295 CNS) was 15.6 µM, the TGI (SF-295 CNS) was 30.4 µM and the GI50 (SF-539 CNS) was 15.4 µM. It also gave a TGI (SF-539 CNS) of 29.1 µM, a GI50 (SK-MEL-2 melanoma) of 17.1 µM and a TGI (SK-MEL-2 melanoma) of 32.3 µM. It also gave a GI50 (SK-MEL-28 melanoma) of 17.5 µM, a TGI (SK-MEL-28 melanoma) of 31.7 µM and a GI50 (SK-MEL-5 melanoma) of 15.5 µM. The TGI (SK-MEL-5 melanoma) was 29 µM, the GI50 (SK-OV-3 ovarian) was 17.2 µM and the TGI (SK-OV-3 ovarian) was 33.6 µM. For the same molecule, the GI50 (SN12C renal) was 16.5 µM, the TGI (SN12C renal) was 30.6 µM and the GI50 (SNB-19 CNS) was 16.4 µM. The TGI (SNB-19 CNS) was 30.6 µM, the GI50 (SNB-75 CNS) was 12.2 µM and the TGI (SNB-75 CNS) was 25.5 µM. For the same molecule, the GI50 (SR leukemia) was 2.84 µM, the TGI (SR leukemia) was 13.3 µM and the GI50 (SW-620 colon) was 5.47 µM. For the same molecule, the TGI (SW-620 colon) was 20.3 µM, the GI50 (T-47D breast) was 14.9 µM and the TGI (T-47D breast) was 34.7 µM. It also gave a GI50 (TK-10 renal) of 17.4 µM, a TGI (TK-10 renal) of 33.3 µM and a GI50 (U251 CNS) of 17.5 µM. It also gave a TGI (U251 CNS) of 35.1 µM, a GI50 (UACC-257 melanoma) of 15.8 µM and a TGI (UACC-257 melanoma) of 32.2 µM. The GI50 (UACC-62 melanoma) was 16.7 µM, the TGI (UACC-62 melanoma) was 30.6 µM and the GI50 (UO-31 renal) was 13.9 µM. For the same molecule, the TGI (UO-31 renal) was 27.1 µM.
